MIC, Activity and LD50 data for 18 compounds are collected here from ChEMBL document CHEMBL1268965, “Synthesis and antifungal activity of a novel series of 13-(4-isopropylbenzyl)berberine derivatives” (Bioorg Med Chem Lett, 2010).

In one data set the test system is Aspergillus fumigatus. Nature of the data set: Antifungal activity against Aspergillus fumigatus ATCC 16424 after 24 hrs by two fold serial dilution method. It is filed as functional. The following applies: ATCC 16424, 24 h.
The subject of the next data set is Pichia kudriavzevii. The data set is described as follows: Antifungal activity against Candida krusei ATCC 6258 after 24 hrs by two fold serial dilution method. It is filed as functional. The following applies: ATCC 6258, 24 h.
A further data set relates to Clavispora lusitaniae. The data set is described as follows: Antifungal activity against Candida lusitaniae ATCC 42720 after 24 hrs by two fold serial dilution method. In kind it is functional. Conditions: ATCC 42720, 24 h.
The test system of the next data set is Candida tropicalis. Nature of the data set: Antifungal activity against Candida tropicalis ATCC 13803 after 24 hrs by two fold serial dilution method. In kind it is functional. The following applies: ATCC 13803, 24 h.
Another data set deals with Aspergillus terreus. The data set is described as follows: Antifungal activity against Aspergillus terreus ATCC 46941 after 24 hrs by two fold serial dilution method. In kind it is functional. Conditions: ATCC 46941, 24 h.
In another data set the test system is Cryptococcus neoformans. Nature of the data set: Antifungal activity against Cryptococcus neoformans ATCC 36556 after 24 hrs by two fold serial dilution method. It is filed as functional. Conditions: ATCC 36556, 24 h.
The test system of another data set is Candida albicans. Nature of the data set: Antifungal activity against Candida albicans ATCC 10231 after 24 hrs by two fold serial dilution method. In kind it is functional. The following applies: ATCC 10231, 24 h.
Data set [1] has as its system Mus musculus. The data set is described as follows: Toxicity ICR mouse assessed as appearance of clinical signs at 33 to 900 mg/kg, po after 7 days. It is filed as organism-based. Set-up: dose 33-900 mg/kg, route oral. The following applies: in vivo, 168 h.
Data set [2] relates to Mus musculus. Nature of the data set: Toxicity ICR mouse assessed as effect on internal organ morphology at 33 to 900 mg/kg, po after 7 days by microscopy. It is filed as organism-based. Set-up: dose 33-900 mg/kg, route oral. Conditions: in vivo, 168 h.
Data set [3] can be described thus: Toxicity in po dosed ICR mouse after 7 days. It is filed as organism-based. The following applies: in vivo.
Data set [4] has as its system Mus musculus. The data set is described as follows: Toxicity ICR mouse assessed as mortality at 33 to 900 mg/kg, po after 7 days. It is filed as organism-based. Set-up: dose 33-900 mg/kg, route oral. Conditions: in vivo, 168 h.
Data set [5] deals with Mus musculus. Nature of the data set: Toxicity ICR mouse assessed as effect on body weight at 33 to 900 mg/kg, po after 7 days. It is filed as organism-based. Set-up: dose 33-900 mg/kg, route oral. Conditions: in vivo, 168 h.

SMILES strings stand for the structures. In brackets after ≈: the same amount, converted by molar mass.

In the case of `COc1ccc2c(Cc3ccc(C(C)C)cc3)c3[n+](cc2c1OC)CCc1cc2c(cc1-3)OCO2`, the MIC came out at 64 µg/mL against Aspergillus fumigatus; 4 µg/mL in the data set with Pichia kudriavzevii; 1 µg/mL in the data set on Clavispora lusitaniae; 1 µg/mL against Candida tropicalis; 32 µg/mL against Aspergillus terreus; 4 µg/mL against Cryptococcus neoformans. Also, 4 µg/mL was the least that counted as inhibitory in the data set on Candida albicans (MIC).

For `COc1ccc2c(Cc3ccc(C(C)C)cc3)c3[n+](cc2c1OCc1ccccc1)CCc1cc2c(cc1-3)OCO2.[Cl-]`, the MIC against Aspergillus fumigatus is 64 µg/mL; in the data set on Pichia kudriavzevii it was 4 µg/mL; against Clavispora lusitaniae it was 4 µg/mL; against Candida tropicalis, 4 µg/mL; in the data set on Aspergillus terreus it was 32 µg/mL; with Cryptococcus neoformans, 4 µg/mL. The compound also yielded an MIC with Candida albicans of 4 µg/mL.

In the case of `COc1ccc2c(Cc3ccc(C(C)C)cc3)c3[n+](cc2c1OCc1ccc(C(C)C)cc1)CCc1cc2c(cc1-3)OCO2.[Cl-]`, the minimal inhibitory concentration (MIC) in the data set on Aspergillus fumigatus stood at 4 µg/mL; against Pichia kudriavzevii it was 2 µg/mL; against Clavispora lusitaniae, 1 µg/mL; in the data set with Candida tropicalis, 1 µg/mL; against Aspergillus terreus, 8 µg/mL; in the data set on Cryptococcus neoformans, 2 µg/mL. The compound also displayed an MIC against Candida albicans of 1 µg/mL.

In the case of `COc1ccc2c(Cc3ccc(C(C)C)cc3)c3[n+](cc2c1OCc1ccc(C(C)(C)C)cc1)CCc1cc2c(cc1-3)OCO2.[Cl-]`, the MIC against Aspergillus fumigatus came out at 4 µg/mL; with Pichia kudriavzevii it was 4 µg/mL; against Clavispora lusitaniae it was 1 µg/mL; in the data set on Candida tropicalis, 1 µg/mL; in the data set with Aspergillus terreus, 8 µg/mL; against Cryptococcus neoformans, 2 µg/mL. This compound registered an MIC with Candida albicans of 1 µg/mL.

Consider `COc1ccc2c(Cc3ccc(C(C)C)cc3)c3[n+](cc2c1OCc1ccc(C(F)(F)F)cc1)CCc1cc2c(cc1-3)OCO2.[Cl-]`, for which the minimum inhibitory concentration (MIC) in the data set on Aspergillus fumigatus was 16 µg/mL; against Pichia kudriavzevii it was 4 µg/mL; with Clavispora lusitaniae, 2 µg/mL; with Candida tropicalis, 2 µg/mL; in the data set on Aspergillus terreus, 16 µg/mL; against Cryptococcus neoformans, 4 µg/mL. In the data set on Candida albicans, this compound had an MIC of 2 µg/mL.

Take `COc1ccc2c(Cc3ccc(C(C)C)cc3)c3[n+](cc2c1OCc1ccc(OC(F)(F)F)cc1)CCc1cc2c(cc1-3)OCO2.[Cl-]`: the MIC in the data set with Aspergillus fumigatus was 32 µg/mL; against Pichia kudriavzevii, 4 µg/mL; in the data set with Clavispora lusitaniae it was 2 µg/mL; against Candida tropicalis, 2 µg/mL; against Aspergillus terreus, 16 µg/mL; in the data set with Cryptococcus neoformans, 4 µg/mL. This compound yielded an MIC against Candida albicans of 2 µg/mL.

On to `COc1ccc2c(Cc3ccc(C(C)C)cc3)c3[n+](cc2c1OCc1cc(F)c(F)c(F)c1)CCc1cc2c(cc1-3)OCO2.[Cl-]`, for which the minimal inhibitory concentration (MIC) is 32 µg/mL against Aspergillus fumigatus; 4 µg/mL against Pichia kudriavzevii; 4 µg/mL with Clavispora lusitaniae; 4 µg/mL in the data set on Candida tropicalis; 32 µg/mL with Aspergillus terreus; 4 µg/mL against Cryptococcus neoformans. This compound also came in with an MIC against Candida albicans of 4 µg/mL.

Consider `C/C=C/COc1c(OC)ccc2c(Cc3ccc(C(C)C)cc3)c3[n+](cc12)CCc1cc2c(cc1-3)OCO2.[Cl-]`, for which the MIC in the data set on Aspergillus fumigatus was 2 µg/mL; in the data set with Pichia kudriavzevii, 1 µg/mL; in the data set with Clavispora lusitaniae it was 0.5 µg/mL; with Candida tropicalis it was 0.5 µg/mL; in the data set with Aspergillus terreus, 4 µg/mL; in the data set with Cryptococcus neoformans, 1 µg/mL. The compound further returned an MIC in the data set with Candida albicans of 0.5 µg/mL.

With `COc1ccc2c(Cc3ccc(C(C)C)cc3)c3[n+](cc2c1OC(C)(C)C)CCc1cc2c(cc1-3)OCO2.[Cl-]`, the MIC with Aspergillus fumigatus worked out at 32 µg/mL; in the data set on Pichia kudriavzevii, 4 µg/mL; against Clavispora lusitaniae, 1 µg/mL; in the data set on Candida tropicalis, 1 µg/mL; against Aspergillus terreus, 32 µg/mL; in the data set with Cryptococcus neoformans, 4 µg/mL. In addition, in the data set with Candida albicans, the lowest concentration to inhibit growth (MIC) was 4 µg/mL.

As for `COc1ccc2c(Cc3ccc(C(C)C)cc3)c3n(cc-2c1=O)CCc1cc2c(cc1-3)OCO2`, the MIC with Aspergillus fumigatus was over 128 µg/mL; against Pichia kudriavzevii, 16 µg/mL (≈ 35.3 µM); against Clavispora lusitaniae it was 16 µg/mL (≈ 35.3 µM); against Candida tropicalis, 16 µg/mL (≈ 35.3 µM); with Aspergillus terreus it was over 128 µg/mL; with Cryptococcus neoformans, 4 µg/mL (≈ 8.82 µM). In addition, it took 16 µg/mL (≈ 35.3 µM) to inhibit growth against Candida albicans (MIC).

Regarding `COc1ccc2c(Cc3ccc(C(C)C)cc3)c3[n+](cc2c1OC(C)=O)CCc1cc2c(cc1-3)OCO2.[Cl-]`, the MIC in the data set on Aspergillus fumigatus is over 128 µg/mL; with Pichia kudriavzevii it was 16 µg/mL; against Clavispora lusitaniae it was 16 µg/mL; in the data set with Candida tropicalis, 16 µg/mL; against Aspergillus terreus, over 128 µg/mL; against Cryptococcus neoformans, 8 µg/mL. This compound also yielded an MIC against Candida albicans of 16 µg/mL.

For `CCCC(=O)Oc1c(OC)ccc2c(Cc3ccc(C(C)C)cc3)c3[n+](cc12)CCc1cc2c(cc1-3)OCO2.[Cl-]`, the MIC against Aspergillus fumigatus is over 128 µg/mL; with Pichia kudriavzevii, 8 µg/mL; against Clavispora lusitaniae it was 8 µg/mL; in the data set on Candida tropicalis, 8 µg/mL; with Aspergillus terreus it was over 128 µg/mL; against Cryptococcus neoformans, 4 µg/mL. The compound further displayed an MIC in the data set with Candida albicans of 8 µg/mL.

Regarding `CCCOc1c(OC)ccc2c(Cc3ccc(C(C)C)cc3)c3[n+](cc12)CCc1cc2c(cc1-3)OCO2.[Cl-]`, the MIC with Aspergillus fumigatus was found to be 4 µg/mL; in the data set on Pichia kudriavzevii, 2 µg/mL; against Clavispora lusitaniae, 0.5 µg/mL; in the data set with Candida tropicalis, 0.5 µg/mL; against Aspergillus terreus it was 8 µg/mL; against Cryptococcus neoformans, 2 µg/mL. The same compound returned a minimum inhibitory concentration (MIC) against Candida albicans of 1 µg/mL.

Turning to `CCCCOc1c(OC)ccc2c(Cc3ccc(C(C)C)cc3)c3[n+](cc12)CCc1cc2c(cc1-3)OCO2.[Cl-]`, the Activity entry in the data set on Mus musculus [1], in the data set with Mus musculus [2], with Mus musculus [4] and with Mus musculus [5] was “Non-toxic” throughout. In addition, the MIC came to 2 µg/mL in the data set with Aspergillus fumigatus; 1 µg/mL in the data set on Pichia kudriavzevii; 0.25 µg/mL with Clavispora lusitaniae; 0.25 µg/mL with Candida tropicalis; 4 µg/mL against Aspergillus terreus; 1 µg/mL against Cryptococcus neoformans. In the data set with Candida albicans, this compound returned an MIC of 0.5 µg/mL. Besides, the LD50 at 168 h in data set [3] worked out at 900 mg/kg.

With `C=CCOc1c(OC)ccc2c(Cc3ccc(C(C)C)cc3)c3[n+](cc12)CCc1cc2c(cc1-3)OCO2.[Cl-]`, the minimum inhibitory concentration (MIC) was 8 µg/mL with Aspergillus fumigatus; 2 µg/mL against Pichia kudriavzevii; 1 µg/mL with Clavispora lusitaniae; 1 µg/mL against Candida tropicalis; 8 µg/mL against Aspergillus terreus; 2 µg/mL against Cryptococcus neoformans. Besides, in the data set with Candida albicans, inhibition of growth (MIC) required 1 µg/mL.

Regarding `CCC(C)(C)Oc1c(OC)ccc2c(Cc3ccc(C(C)C)cc3)c3[n+](cc12)CCc1cc2c(cc1-3)OCO2.[Cl-]`, the MIC worked out at 32 µg/mL in the data set on Aspergillus fumigatus; 4 µg/mL against Pichia kudriavzevii; 1 µg/mL in the data set with Clavispora lusitaniae; 1 µg/mL with Candida tropicalis; 16 µg/mL against Aspergillus terreus; 4 µg/mL in the data set with Cryptococcus neoformans. In addition, in the data set on Candida albicans, the MIC was determined as 2 µg/mL.

Turning to `COc1ccc2c(Cc3ccc(C(C)C)cc3)c3[n+](cc2c1OCCCO)CCc1cc2c(cc1-3)OCO2.[Cl-]`, the MIC against Aspergillus fumigatus was determined as 8 µg/mL; with Pichia kudriavzevii, 2 µg/mL; against Clavispora lusitaniae, 1 µg/mL; against Candida tropicalis, 1 µg/mL; with Aspergillus terreus, 8 µg/mL; with Cryptococcus neoformans, 2 µg/mL. In the data set on Candida albicans, this compound returned an MIC of 2 µg/mL.

On to `C[C@@H]1[C@H](O)[C@@H](C)/C=C/C=C/C=C/C=C/C=C/C=C/C=C/[C@H](O[C@@H]2O[C@H](C)[C@@H](O)[C@H](N)[C@@H]2O)C[C@@H]2O[C@](O)(C[C@@H](O)C[C@@H](O)[C@H](O)CC[C@@H](O)C[C@@H](O)CC(=O)O[C@H]1C)C[C@H](O)[C@H]2C(=O)O` [AMPHOTERICIN B], for which the MIC against Aspergillus fumigatus was found to be 1 µg/mL (≈ 1.08 µM); against Pichia kudriavzevii it was 0.5 µg/mL (≈ 0.541 µM); in the data set with Clavispora lusitaniae, 1 µg/mL (≈ 1.08 µM); in the data set on Candida tropicalis it was 0.5 µg/mL (≈ 0.541 µM); against Aspergillus terreus, 16 µg/mL (≈ 17.3 µM); in the data set with Cryptococcus neoformans, 0.25 µg/mL (≈ 0.271 µM). In the data set with Candida albicans, this compound registered an MIC of 0.5 µg/mL (≈ 0.541 µM).

As usually defined, the MIC is the lowest concentration found to suppress growth. Low values mean greater potency, high ones weaker potency. A word on the LD50: it is the dose expected to kill half of the subjects tested.
